Assay results published in paper PMC7113690 (Antiviral Research, 2015).
Counter-ions that a name gives are not always drawn. Like-named read-outs stand apart in the source and are kept apart here.

Key:
[1] = system: EBOV (Zaire strain) GP/HIV core pseudovirus (pEBOV); experiment: organism not typed; assay type: cell-based, Ebola virus (Zaire strain); conditions: for EC50: read-out: EC50 pEBOV
[2] = system: VSV G/HIV core pseudovirus (pVSV); experiment: organism not typed; assay type: cell-based; conditions: for EC50: read-out: EC50 pVSV
[3] = system: enterovirus 71 (EV-A71, strain G082); assay type: cell-based
[4] = system: Coxsackievirus A16 (CV-A16, strain SHZH05-1); assay type: cell-based
[5] = system: EBOV pseudovirus (pEBOV) entry into Vero cells; assay type: cell-based, Ebola virus (Zaire strain)
[6] = system: Ebola virus (Zaire strain) minigenome; assay type: cell-based
[7] = system: poliovirus 1 (PV1, strain Sabin); assay type: cell-based
[8] = in vivo; cited from earlier work
[9] = system: Vero cells
[10] = system: eGFP-EBOV; conditions: cited from earlier work
[11] = cited from earlier work
[12] = system: bacteremia; conditions: in vivo, 40 mg/kg; cited from earlier work
[13] = system: EBOV; conditions: mouse, in vivo, 14 mg/kg; cited from earlier work

**Q.** For `CN(C)CCOc1ccc(/C(=C(/CCCl)c2ccccc2)c2ccccc2)cc1` [Toremiphene], which EC50 ([1]; Vero, 72 h) is on record?
**A.** Its EC50 is 0.38 µM.

**Q.** What about the EC50 ([2]; Vero, 72 h) of the same compound?
**A.** The EC50 was 7.53 µM.

**Q.** For `Oc1c(I)cc(I)c2cccnc12` [Iodoquinol], which EC50 ([1]; Vero, 72 h) is on record?
**A.** Its EC50 is 3.5 µM.

**Q.** And the EC50 ([2]; Vero, 72 h)?
**A.** Its EC50 is 3.45 µM.

**Q.** With `CC(C(=O)O)c1ccc(N2Cc3ccccc3C2=O)cc1` (centres unmarked) [Indoprofen] as the compound, how does the EC50 ([1]; Vero, 72 h) read?
**A.** Its EC50 is 9.37 µM.

**Q.** And the EC50 ([2]; Vero, 72 h)?
**A.** Its EC50 is 8.51 µM.

**Q.** With `O=C1C=C2C=C[C@@H]3C[C@@]2(O1)[C@H]1CCCCN31` [Securinine] as the compound, how does the EC50 ([1]; Vero, 72 h) read?
**A.** Its EC50 is 27.1 µM.

**Q.** What about the EC50 ([2]; Vero, 72 h) of the same compound?
**A.** Its EC50 is 26.6 µM.

**Q.** Which EC50 ([1]; Vero, 72 h) does the source give for `CN1CCC(=C2c3ccccc3Sc3ccccc32)CC1` [Pimethixene maleate] here?
**A.** The EC50 was 10.7 µM.

**Q.** And the EC50 ([2]; Vero, 72 h)?
**A.** The EC50 was 14.8 µM.

**Q.** Which inhibition at 125 µM ([1]; Vero, read-out: inhibition of pEBOV) does the source give for `CN[C@H](CC(C)C)C(=O)N[C@H]1C(=O)N[C@@H](CC(N)=O)C(=O)N[C@H]2C(=O)N[C@H]3C(=O)N[C@H](C(=O)N[C@H](C(=O)O)c4cc(O)cc(O)c4-c4cc3ccc4O)[C@H](O)c3ccc(c(Cl)c3)Oc3cc2cc(c3O[C@@H]2O[C@H](CO)[C@@H](O)[C@H](O)[C@H]2O[C@H]2C[C@](C)(N)[C@H](O)[C@H](C)O2)Oc2ccc(cc2Cl)[C@H]1O` [vancomycin] here?
**A.** The inhibition at 125 µM was 24.7%.

**Q.** Which EC50 ([1]; Vero, 72 h) does the source give for `C[C@H](N)[C@H](O)c1ccc(O)c(O)c1` [Levonordefrin] here?
**A.** The EC50 was over 50 µM.

**Q.** And the EC50 ([2]; Vero, 72 h)?
**A.** The EC50 was over 50 µM.

**Q.** With `CCN(CC)CCOCCOC(=O)C(CC)(CC)c1ccccc1` [Oxeladin] as the compound, how does the EC50 ([1]; Vero, 72 h) read?
**A.** Its EC50 is 8.06 µM.

**Q.** And the EC50 ([2]; Vero, 72 h)?
**A.** Its EC50 is 38.1 µM.

**Q.** Which “inhibition of EV-A71” value [3] does the source give for Teicoplanin here?
**A.** The value was “no inhibition was observed”.

**Q.** What about the “inhibition of CV-A16” value [4] of the same compound?
**A.** The value was “no inhibition was observed”.

**Q.** What about the “inhibition of pEBOV infection (in words)” value ([1]; 125 µM) of the same compound?
**A.** The value was “completely inhibited”.

**Q.** What about the EC50 [1] of the same compound?
**A.** The EC50 was 2.38 µM.

**Q.** What about the EC90 ([1]; read-out: EC90 pEBOV) of the same compound?
**A.** Its EC90 is 9.36 µM.

**Q.** And the “inhibition of pEBOV infection, during infection” value [5]?
**A.** The value was “efficiently inhibited infection”.

**Q.** And the “inhibition of pEBOV infection, post-attachment” value [5]?
**A.** The value was “no inhibition was detected”.

**Q.** What about the “inhibition of pEBOV infection, pre-attachment” value [5] of the same compound?
**A.** The value was “efficiently inhibited infection”.

**Q.** And the “inhibition of EBOV minigenome replication” value [6]?
**A.** Its value is “did not inhibit”.

**Q.** And the “inhibition of PV1” value [7]?
**A.** Its value is “no inhibition was observed”.

**Q.** What about the “Cmin at which toxicity is seen” value [8] of the same compound?
**A.** Its value is at least 60000 ng/mL.

**Q.** And the “trough plasma concentration (Cmin)” value [8]?
**A.** The value was 20000 to 60000 ng/mL.

**Q.** What about the CC50 [9] of the same compound?
**A.** The CC50 was over 125 µM.

**Q.** And the cytotoxicity [9]?
**A.** The cytotoxicity was “without cytotoxicity”.

**Q.** What about the “activity against eGFP-EBOV in vitro” value [10] of the same compound?
**A.** The value was “active”.

**Q.** What about the “inhibition of pVSV infection” value ([2]; 125 µM) of the same compound?
**A.** Its value is “less than 20%”.

**Q.** And the EC50 [2]?
**A.** Its EC50 is over 125 µM.

**Q.** What about the “bound to plasma protein” value [11] of the same compound?
**A.** The value was 90%.

**Q.** And the “safety and decrease of bacteremia” value [12]?
**A.** The value was “safe and effectively in decreasing bacteremia”.

**Q.** And the “protection of EBOV-infected mice” value [13]?
**A.** The value was “no protection was observed”.

**Q.** What does the source list for `O=C(OCC(O)CO)c1ccccc1Nc1ccnc2cc(Cl)ccc12` (centres unmarked) [Glafenine]?
**A.** EC50 ([1]; Vero, 72 h): 11.1 µM; EC50 ([2]; Vero, 72 h): 10.9 µM

**Q.** Which EC50 ([1]; Vero, 72 h) does the source give for `C[C@@H]1CC[C@H]2[C@@H](C)C(=O)O[C@@H]3O[C@@]4(C)CC[C@@H]1[C@]32OO4` [Artemisinin] here?
**A.** The EC50 was 74.1 µM.

**Q.** What about the EC50 ([2]; Vero, 72 h) of the same compound?
**A.** The EC50 was 162 µM.

**Q.** For `Fc1ccc([C@@H]2CCNC[C@H]2COc2ccc3c(c2)OCO3)cc1` [Paroxetine], which EC50 ([1]; Vero, 72 h) is on record?
**A.** The EC50 was 2.4 µM.

**Q.** And the EC50 ([2]; Vero, 72 h)?
**A.** Its EC50 is 7.39 µM.
